Test system: Iba-1
Assay: Iba-1 expression in VM-M3 brain tumour tissue (immunohistochemistry, western blot)
Assay type: in vivo, mouse (VM/Dk)
Conditions: DON treated brain tumour tissue; immunohistochemistry and western blot
Experimental: FIGS. 6A-6C. Restricted Ketogenic diet with DON reduces the Iba-1 expression in the VM-M3 brain tumour tissue. Immunohistochemistry (IHC) of Iba-1 was performed in formalin fixed brain tissues as described in Methods. […] Western blot analysis of Iba-1 protein expression in the tumours indicates a decrease in the expression of Iba-1 in the DON treated tumours (n=3 mouse tumour brain tissue) in comparison to SD-UR (n=3 mouse tumour brain tissue). A decrease in expression was also seen for KD-R mice (n=2 mouse tumour brain tissue). Normal brain (NB) was used as a negative control tissue, FIGS. 6B and 6C.
Iba-1 protein expression was analyzed in the VM-M3 brain tumour tissue by immunohistochemistry and western blot. Iba-1 was heavily expressed in VM-M3 tumour and normal microglia/macrophages, as we described previously^37. The KD-R reduced the expression of Iba-1 as shown in both immunohistochemistry and western blot (FIGS. 6A and 6B). […]
Approximately 100 μg of total protein from each tissue sample was denatured with SDS-PAGE sample buffer [63 mmol/L Tris-HCl (pH 6.8), 10% glycerol, 2% SDS, 0.0025% bromphenol blue, and 5% 2-mercaptoethanol] and was resolved by SDS-PAGE on 4% to 12% Bis-Tris gels (Invitrogen). […] Each membrane was stripped and reprobed for β-actin as an internal loading control and the ratio of the Iba-1 to β-actin was analyzed by scanning densitometry (FluorChem 8900 Software).

[N-]=[N+]=CC(=O)CC[C@H](N)C(=O)O [DON, 6-diazo-5-oxo-L-norleucine]
Iba-1 expression: significant reduction

From patent publication US20200316096A1, “COMBINATION OF DIET AND DRUG THERAPY FOR TREATING CANCER” (Trustees of Boston College, priority 2019, published 2020)
